Tests used:
[1] = system: lambsquarters; assay: Test C pre-/postemergence herbicide test; format: in vivo, Chenopodium album
In short: (§1)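 Greenhouse pots; formulation = non-phytotoxic solvent mix + surfactant. PRE onto seeds in loam:sand; POST at 1–4 leaves (2–18 cm) in peat moss/vermiculite medium. Read-out: visual % control vs untreated, day 13–15.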

[2] = system: rice; assay: Test B flooded paddy test; format: in vivo, Oryza sativa; conditions: 500 g ai/ha, Flood; scale of 0 to 100 where 0 is no effect and 100 is complete control
In short: (§2)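 Treatment was made at the 2-leaf stage by dosing the standing floodwater, kept 3 cm above soil level for the whole test. Greenhouse exposure lasted 13 to 15 days. Response is a visual percent rating relative to controls, where a dash indicates no test result.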

[3] = system: ragweed; assay: Test C pre-/postemergence herbicide test; format: in vivo, Ambrosia elatior
In short: as §1

[4] = system: wheat (winter wheat); assay: Test C pre-/postemergence herbicide test; format: in vivo, Triticum aestivum; conditions: for Plant response rating, Wheat: Postemergence; for Wheat plant response rating / Plant response rating (scale of 0 to 100), Wheat: Preemergence
In short: as §1

[5] = system: corn; assay: Test A pre-/postemergence herbicide test; format: in vivo, Zea mays; conditions: Postemergence
In short: (§3)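 Greenhouse pot test with pre- and postemergence application of surfactant-containing solvent formulations. Postemergence plants were 2–10 cm, one- to two-leaf stage. Response scored visually after ~10 days, 0 (no effect) to 100 (complete control).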

[6] = system: crabgrass, large; assay: Test C pre-/postemergence herbicide test; format: in vivo, Digitaria sanguinalis
In short: as §1

[7] = system: oat, wild; assay: Test C pre-/postemergence herbicide test; format: in vivo, Avena fatua; conditions: Postemergence
In short: as §1

[8] = system: pigweed; assay: Test C pre-/postemergence herbicide test; format: in vivo, Amaranthus retroflexus
In short: as §1

[9] = system: ducksalad; assay: Test B flooded paddy test; format: in vivo, Heteranthera limosa; conditions: 500 g ai/ha, Flood; scale of 0 to 100 where 0 is no effect and 100 is complete control
In short: as §2

[10] = system: johnsongrass; assay: Test C pre-/postemergence herbicide test; format: in vivo, Sorghum halepense
In short: as §1

[11] = system: giant foxtail; assay: Test A pre-/postemergence herbicide test; format: in vivo, Setaria faberii
In short: as §3

[12] = system: sedge, umbrella; assay: Test B flooded paddy test; format: in vivo, Cyperus difformis; conditions: 500 g ai/ha, Flood; scale of 0 to 100 where 0 is no effect and 100 is complete control
In short: as §2

[13] = Postemergence, 31 g ai/ha, scale 0 to 100 (0 no effect, 100 complete control)
[14] = Postemergence, 62 g ai/ha, scale 0 (no effect) to 100 (complete control)
[15] = Postemergence, 125 g ai/ha, scale 0 to 100 (0 no effect, 100 complete control)
[16] = Postemergence, 250 g ai/ha, scale 0 to 100 (0 no effect, 100 complete control)
[17] = Preemergence, 31 g ai/ha, scale 0 to 100, 0 is no effect and 100 is complete control
[18] = Preemergence, 62 g ai/ha, scale 0 to 100 (0 no effect, 100 complete control)
[19] = Preemergence, 125 g ai/ha, scale 0 to 100 (0 no effect, 100 complete control)
[20] = 31 g ai/ha, scale 0 to 100 (0 no effect, 100 complete control)
[21] = 62 g ai/ha, scale 0 (no effect) to 100 (complete control)
[22] = 125 g ai/ha, scale 0 to 100 (0 no effect, 100 complete control)
[23] = 250 g ai/ha, scale 0 to 100 (0 no effect, 100 complete control)
[24] = 31 g ai/ha, scale 0 to 100, 0 is no effect and 100 is complete control
[25] = 62 g ai/ha, scale 0 to 100 (0 no effect, 100 complete control)
[26] = 125 g ai/ha, visual rating on 0 to 100 scale (0 no effect, 100 complete control), approx. 10 days
[27] = 500 g ai/ha, 0 to 100 scale (0 no effect, 100 complete control)
[28] = Postemergence, 125 g ai/ha, visual rating on 0 to 100 scale (0 no effect, 100 complete control), approx. 10 days
[29] = Postemergence, 500 g ai/ha, 0 to 100 scale (0 no effect, 100 complete control)
[30] = Preemergence, 125 g ai/ha, 0 to 100 scale where 0 is no effect and 100 is complete control
[31] = Preemergence, 500 g ai/ha, visual rating on 0 to 100 scale (0 no effect, 100 complete control)

CN1CC(c2ccc(F)c(F)c2)C(C(=O)Nc2cccc(F)c2F)C1=O (stereo not drawn) [Compound 303]
55: Lambsquarters plant response rating [1, 17] | Plant response rating, Ragweed [3, 16] | Pigweed plant response rating [8, 18] | Johnsongrass plant response rating [10, 18]
0: Plant response rating, Ragweed [3, 13] | Plant response rating, Ragweed [3, 14] | Plant response rating, Wheat [4, 20] | Plant response rating, Wheat [4, 21] | Plant response rating, Wheat [4, 22] | Plant response rating, Wheat [4, 23] | Wheat plant response rating [4, 24] | Plant response rating, Crabgrass, Large [6, 13] | Plant response rating, Oat, Wild [7, 20] | Plant response rating, Oat, Wild [7, 21] | Plant response rating, Oat, Wild [7, 22] | Plant response rating, Oat, Wild [7, 23] | Plant response rating, Pigweed [8, 13] | Plant response rating, Pigweed [8, 14] | Plant response rating, Johnsongrass [10, 13] | Plant response rating, Johnsongrass [10, 14] | Plant response rating, Johnsongrass [10, 15] | Johnsongrass plant response rating [10, 17] | Plant response rating, Sedge, Umbrella [12]
35: Plant response rating, Lambsquarters [1, 13] | Pigweed plant response rating [8, 17]
50: Plant response rating, Corn [5, 26]
40: Plant response rating, Ragweed [3, 15] | Plant response rating, Crabgrass, Large [6, 14]
100: Plant response rating (scale of 0 to 100), Crabgrass, Large ([6]; Preemergence, 250 g ai/ha) | Plant response rating, Ducksalad [9]
10: Plant response rating, Pigweed [8, 15]
80: Plant response rating, Lambsquarters [1, 16] | Plant response rating (scale of 0 to 100), Lambsquarters ([1]; Preemergence, 250 g ai/ha) | Plant response rating (scale of 0 to 100), Ragweed ([3]; Preemergence, 250 g ai/ha) | Plant response rating (scale of 0 to 100), Pigweed ([8]; Preemergence, 250 g ai/ha) | Plant response rating (scale of 0 to 100), Johnsongrass ([10]; Preemergence, 250 g ai/ha) | Plant response rating, Foxtail, Giant [11, 28] | Plant response rating, Foxtail, Giant [11, 29]
65: Plant response rating, Lambsquarters [1, 15] | Plant response rating, Lambsquarters [1, 19] | Plant response rating, Crabgrass, Large [6, 15] | Plant response rating, Pigweed [8, 19] | Plant response rating, Johnsongrass [10, 19]
90: Plant response rating (scale of 0 to 100), Wheat ([4]; 250 g ai/ha) | Plant response rating, Crabgrass, Large [6, 16] | Plant response rating, Foxtail, Giant [11, 30] | Foxtail, Giant plant response rating [11, 31]
98: Crabgrass, Large plant response rating [6, 18] | Plant response rating, Crabgrass, Large [6, 19]
30: Plant response rating, Rice [2]
75: Plant response rating, Ragweed [3, 19] | Wheat plant response rating [4, 25]
95: Crabgrass, Large plant response rating [6, 17]
70: Ragweed plant response rating [3, 18] | Plant response rating, Corn [5, 27]
5: Ragweed plant response rating [3, 17] | Plant response rating, Johnsongrass [10, 16]
60: Lambsquarters plant response rating [1, 18]
85: Plant response rating, Lambsquarters [1, 14]
25: Plant response rating, Pigweed [8, 16]

CN1CC(c2cccc(C(F)(F)F)c2)C(C(=O)Nc2cccc(F)c2F)C1=O (stereo not drawn) [Compound 305]
90: Wheat plant response rating [4, 25] | Plant response rating (scale of 0 to 100), Wheat ([4]; 250 g ai/ha) | Plant response rating, Crabgrass, Large [6, 19] | Plant response rating, Johnsongrass [10, 19] | Plant response rating (scale of 0 to 100), Johnsongrass ([10]; Preemergence, 250 g ai/ha) | Plant response rating, Foxtail, Giant [11, 30] | Foxtail, Giant plant response rating [11, 31]
30: Plant response rating, Oat, Wild [7, 23]
80: Plant response rating, Crabgrass, Large [6, 16] | Plant response rating, Pigweed [8, 19] | Johnsongrass plant response rating [10, 17] | Plant response rating, Foxtail, Giant [11, 28] | Plant response rating, Foxtail, Giant [11, 29]
5: Plant response rating, Wheat [4, 23]
45: Plant response rating, Ragweed [3, 16] | Wheat plant response rating [4, 24]
40: Plant response rating, Ragweed [3, 15] | Plant response rating, Crabgrass, Large [6, 13]
20: Plant response rating, Johnsongrass [10, 15] | Plant response rating, Johnsongrass [10, 16]
60: Plant response rating, Lambsquarters [1, 13] | Lambsquarters plant response rating [1, 17] | Plant response rating, Pigweed [8, 14]
55: Plant response rating, Crabgrass, Large [6, 14] | Plant response rating, Pigweed [8, 13]
35: Plant response rating, Lambsquarters [1, 14] | Plant response rating, Ragweed [3, 19]
0: Plant response rating, Ragweed [3, 13] | Plant response rating, Ragweed [3, 14] | Ragweed plant response rating [3, 17] | Plant response rating, Wheat [4, 20] | Plant response rating, Wheat [4, 21] | Plant response rating, Wheat [4, 22] | Plant response rating, Oat, Wild [7, 20] | Plant response rating, Oat, Wild [7, 21] | Plant response rating, Oat, Wild [7, 22] | Plant response rating, Johnsongrass [10, 13] | Plant response rating, Johnsongrass [10, 14] | Plant response rating, Sedge, Umbrella [12]
100: Plant response rating, Ducksalad [9]
70: Lambsquarters plant response rating [1, 18] | Plant response rating, Lambsquarters [1, 19] | Plant response rating, Corn [5, 26] | Plant response rating, Corn [5, 27] | Pigweed plant response rating [8, 18]
65: Plant response rating, Lambsquarters [1, 16] | Plant response rating, Pigweed [8, 15] | Plant response rating, Pigweed [8, 16]
75: Plant response rating (scale of 0 to 100), Lambsquarters ([1]; Preemergence, 250 g ai/ha) | Plant response rating (scale of 0 to 100), Ragweed ([3]; Preemergence, 250 g ai/ha) | Plant response rating, Crabgrass, Large [6, 15]
95: Crabgrass, Large plant response rating [6, 17] | Crabgrass, Large plant response rating [6, 18] | Plant response rating (scale of 0 to 100), Crabgrass, Large ([6]; Preemergence, 250 g ai/ha)
10: Pigweed plant response rating [8, 17]
50: Plant response rating, Lambsquarters [1, 15]
15: Plant response rating, Rice [2] | Ragweed plant response rating [3, 18]
85: Plant response rating (scale of 0 to 100), Pigweed ([8]; Preemergence, 250 g ai/ha) | Johnsongrass plant response rating [10, 18]

Reference: patent publication US10294202B2, “Pyrrolidinones as herbicides” (FMC Corporation, priority 2013, dated 2019)
